The text below walks through data of patent EP0126043A1, “Carbohydrate derivatives and compositions thereof for therapeutic or diagnostic use” (priority 1983, dated 1984).

Experiment [1] relates to S. pneumoniae. Put plainly: Inhibition of adherence of pneumococci to human pharyngeal epithelium cells (bacteria preincubated with free receptor). Format: cell-based. The following applies: for activity at 1000 µg/mL / activity at 5000 µg/mL / activity at 10000 µg/mL / activity at 100 µg/mL: read-out: Adherence % of control Average; for Inhibition of adherence % of control Average: Conc. 200 µg/ml, bacteria preincubated with the glycoconjugate before adding epithelium cells, adhesion in percent of saline control; for inhibition of adherence (result in words): pretreatment of the pneumococci with the substance; for IC50: read-out: concentration for 50% inhibition of adherence. As for the experimental part: (§1) Two strains of S. Pneumoniae, EF3114 and EF 10276 (both of the capsular type 6A isolated from the nasopharynx of patients having inflammation in the middle ear) were maintained in a lyophilized state. For adherence test the lyophiles were transferred to blood agar plates and cultivated over night, were then allowed to grow for18 hours in a synthetic medium (Ref. 1) supplemented with 2 g/l ascorbic acid and such as described in (Ref. 2). The bacteria were harvested by centrifugation and suspended in saline solution (Ref. 3).
Binding to humane nasopharyngeal epithelium cells was investigated in vitro as previously described (Ref. 3). Bacterial cells (10^9/ml) and pharyngeal epithelium cells from a healthy donor (10^4/ml) were mixed, centrifugated at 1500xg for 10 minutes and incubated at 37°C for 30 minutes. After washing twice in 2.5 ml salines for separating epithelium cells from non-adhering bacteria the number of bacteria adhering at 40 epithelium cells were counted and the average number per cell was determined.
For inhibition of adhesion the bacterium concentration giving an average adhesion value of 20-300 bacteria per cell was determined. This inoculate was then preincubated with dilutions of the solutions of potential receptor activity for 15 minutes at 37°C.
Epithelium cells were added and adhesion testing was carried out as described. The adhesion was given in percent of the saline as a control sample.

Experiment [2] deals with S. pneumoniae. The experiment is described as follows: Induction/increase of pneumococcal adherence by coating epithelium cells with glycoconjugate. The following applies: for Increase of adherence % of control Average: Conc. 200 µg/ml, epithelium cells preincubated with glycoconjugate, washed and used for adherence testing; for effect of coating of pharyngeal epithelium cells on adherence (result in words): coating with 200 µg/ml. The experiment is classed as cell-based. On the procedure:
as §1
Binding to humane nasopharyngeal epithelium cells was investigated in vitro as previously described (Ref. 3). Bacterial cells (10^9/ml) and pharyngeal epithelium cells from a healthy male donor (10^4/ml) were mixed, centrifugated at 1500xg for 10 minutes and incubated at 37°C for 30 minutes. After washing twice in 2.5 ml salines for separating epithelium cells from non-adhering bacteria the number of bacteria adhering at 40 epithelium cells were counted and the average number per cell was determined.
Association of receptor active glycolipids with epithelium cells or erythrocytes can increase binding to epithelium cells already containing the receptor or induce binding of cells which have not previously contained receptor. Rabbit erythrocytes (100 ul of a 5 % suspension) were mixed with a neolactotetraosyl ceramide, sialylneolactotetra- osyleeramide or globotetraosylceramide (500 ul of . suspensions of 200 ug/ml) and incubated at 37° for 3 hours with rotation (Ref. 16). After elimination of unbound glycolipid by repeated washing the erythrocyte concentration was again adjusted to 5 % and used for haemagglutination. Parallel to the tests regarding inhibition of adherence the humane nasopharyngeal epithelium cells were pretreated with decreasing concentrations of glycolipid, incubated for 2 hours at 37°C, washed and used for testing of adherence.

Values after ≈ are worked out from the molar mass of the structure shown.

`CO[C@@H]1O[C@H](CO)[C@@H](O[C@@H]2O[C@H](CO)[C@H](O)[C@H](O)[C@H]2O)[C@H](O)[C@H]1NC(C)=O` [Substance 9, Methyl 2-acetamido-2-deoxy-4-O-(β-D-galactopyranosyl)-β--D-glycopyranoside]: in experiment [1] (Streptococcus pneumoniae), the activity at 1000 µg/mL came to 96%, the activity at 5000 µg/mL is 45% and the activity at 10000 µg/mL came out at 29%. Further, in experiment [1] (Streptococcus pneumoniae, read-out: concentration at which adherence was inhibited), the minimal effective concentration is around 5000 µg/mL.
`CO[C@@H]1O[C@H](CO)[C@H](O)[C@H](O[C@@H]2O[C@H](CO)[C@@H](O)[C@H](O)[C@H]2NC(C)=O)[C@H]1O` [Substance 12, Methyl 3-0-(2-acetamido-2-deoxy-β-D-glycopyranosyl)-β-D--galactopyranoside]: in experiment [1] (Streptococcus pneumoniae), the activity at 100 µg/mL is 66%, the activity at 1000 µg/mL was 105%, the activity at 5000 µg/mL came to 15% and the activity at 10000 µg/mL stood at 4%.
With “neolactotetraosyl ceramide [Substance 2]”, the “Inhibition of adherence % of control Average” value in experiment [1] is 59 % of control. In addition, the “adherence, % of the saline as a control” value in experiment [1] (pretreatment of the pneumococci, at 200 µg/ml, 15 min) was 59%. In addition, in experiment [2], the “Increase of adherence % of control Average” value is reported as 190 % of control and the “effect of coating of pharyngeal epithelium cells on adherence (result in words)” value (from here on “effect of coating … (result in words)”) is given as “increased adherence”.
In the case of “N-acetylneuraminosyl neolactotetraosyl ceramide [Substance 3, reference compound]”, in experiment [1], the “Inhibition of adherence % of control Average” value is 100 % of control and the “inhibition of adherence (result in words)” value is reported as “no effect”. Further, in experiment [2], the “Increase of adherence % of control Average” value is given as 94 % of control and the “effect of coating … (result in words)” value was “no effect”.
For the molecule `CO[C@@H]1O[C@H](CO)[C@H](O[C@@H]2O[C@H](CO)[C@@H](O)[C@H](O)[C@H]2NC(C)=O)[C@H](O)[C@H]1O` [Substance 11, Methyl 4-0-(2-acetamido-2-deoxy-β-D-glycopyranosyl)-β-D--galactopyranoside], in experiment [1] (Streptococcus pneumoniae), the activity at 100 µg/mL was found to be 65%, the activity at 1000 µg/mL came out at 72%, the activity at 5000 µg/mL was 73% and the activity at 10000 µg/mL was determined as 75%. For the same molecule, the “inhibition of adherence (result in words)” value in experiment [1] was “inactive”.
On to `CC(=O)N[C@H]1C(O)O[C@H](CO)[C@@H](O[C@@H]2O[C@H](CO)[C@H](O)[C@H](O)[C@H]2O)[C@@H]1O` (stereo partly shown) [Substance 10, N-acetyllactose amine, reference compound], for which, in experiment [1] (Streptococcus pneumoniae), the activity at 1000 µg/mL turned out to be 95%, the activity at 5000 µg/mL came to 144% and the activity at 10000 µg/mL is 127%. Further, in experiment [1], the “inhibition of adherence (result in words)” value is “inactive”.
Take Galβ1 → 3 GlcNAc-β1-O-Bz [Substance 17]: the “Adherence % of control Average” value in experiment [1] (Conc. 0.1 mg/ml) was 88 % of control; in experiment [1] (Conc. 1 mg/ml), 86 % of control; in experiment [1] (Conc. 5 mg/ml) it was 51 % of control; in experiment [1] (Conc. 10 mg/ml), 8 % of control.
`CCO[C@@H]1O[C@H](CO)[C@@H](O[C@@H]2O[C@H](CO)[C@H](O)[C@H](O)[C@H]2O)[C@H](O)[C@H]1O` [Substance 14, Ethyl 4-0-β-D-galactopyranosyl-β-D-glycopyranoside]: in experiment [1] (Streptococcus pneumoniae), the activity at 1000 µg/mL was 85%, the activity at 5000 µg/mL was 78% and the activity at 10000 µg/mL is 63%.
For the molecule globotetraosylceramide, the “effect of coating … (result in words)” value in experiment [2] is “no effect”.
With `CCO[C@@H]1O[C@H](CO)[C@@H](O[C@@H]2O[C@H](CO)[C@H](O)[C@H](O)[C@H]2O)[C@H](O)[C@H]1NC(C)=O` [Substance 13, Galβ1→4GlcNAcβ1-O-Et], in experiment [1] (Streptococcus pneumoniae), the activity at 1000 µg/mL turned out to be 67%, the activity at 5000 µg/mL turned out to be 38% and the activity at 10000 µg/mL was found to be 31%.
Turning to `CC(=O)N[C@H]1[C@H](O[C@H]2[C@@H](O)[C@@H](CO)O[C@@H](O[C@H]3[C@H](O)[C@@H](O)C(O)O[C@@H]3CO)[C@@H]2O)O[C@H](CO)[C@@H](O[C@@H]2O[C@H](CO)[C@H](O)[C@H](O)[C@H]2O)[C@@H]1O` (stereo partly shown) [Substance 5, Neolactotetraose], in experiment [1] (Streptococcus pneumoniae), the activity at 100 µg/mL is 52%, the activity at 1000 µg/mL came out at 28%, the activity at 5000 µg/mL is 0% and the activity at 10000 µg/mL came to 1%. Besides, in experiment [1] (Streptococcus pneumoniae), the IC50 is around 400 µg/mL (≈ 565 µM).
As for `CO[C@@H]1O[C@H](CO)[C@@H](O[C@@H]2O[C@H](CO)[C@H](O)[C@H](O[C@@H]3O[C@H](CO)[C@@H](O[C@@H]4O[C@H](CO)[C@H](O)[C@H](O)[C@H]4O)[C@H](O)[C@H]3NC(C)=O)[C@H]2O)[C@H](O)[C@H]1O` [Substance 16, Methyl 4-0-{3-0-[2-acetamido-2-deoxy-4-0-(D-galactopy-ranasyl)-β-D-glucopyranosyl]-β-D-galactopyranosyl}-β-D-glucopyranoside], in experiment [1] (Streptococcus pneumoniae), the activity at 100 µg/mL was determined as 104%, the activity at 1000 µg/mL came to 11%, the activity at 5000 µg/mL turned out to be 1% and the activity at 10000 µg/mL worked out at 4%.
For the molecule `CO[C@H]1O[C@H](CO)[C@@H](O[C@@H]2O[C@H](CO)[C@H](O)[C@H](O)[C@H]2O)[C@H](O)[C@H]1NC(C)=O` [Substance 8, Methyl 2-acetamido-2-deoxy-4-O-(β-D-galactopyranosvl)-α--D-glycopyranoside], in experiment [1] (Streptococcus pneumoniae), the activity at 1000 µg/mL was determined as 96%, the activity at 5000 µg/mL was determined as 98% and the activity at 10000 µg/mL was 129%. Moreover, in experiment [1], the “inhibition of adherence (result in words)” value is “inactive”.
For `CO[C@@H]1O[C@H](CO)[C@H](O)[C@H](O[C@@H]2O[C@H](CO)[C@@H](O[C@@H]3O[C@H](CO)[C@H](O)[C@H](O)[C@H]3O)[C@H](O)[C@H]2NC(C)=O)[C@H]1O` [Substance 15, Methyl 3-0-2-acetamido-2-deoxy-4-0-(β-D-galactopyranosyl)--β-D-glycopyranosyl-β-D-galactopyranoside], in experiment [1] (Streptococcus pneumoniae), the activity at 100 µg/mL turned out to be 60%, the activity at 1000 µg/mL was 45%, the activity at 5000 µg/mL worked out at 11% and the activity at 10000 µg/mL was found to be 2%.
For “globotetraosylceramide [Substance 4, reference compound]”, in experiment [2], the “Increase of adherence % of control Average” value was 100 % of control.
With `CC(=O)N[C@H]1[C@H](O[C@H]2[C@@H](O)[C@@H](CO)O[C@@H](O[C@H]3[C@H](O)[C@@H](O)C(O)O[C@@H]3CO)[C@@H]2O)O[C@H](CO)[C@@H](O)[C@@H]1O[C@@H]1O[C@H](CO)[C@H](O)[C@H](O)[C@H]1O` (stereo partly shown) [Substance 6, Lactotetraose], in experiment [1] (Streptococcus pneumoniae), the activity at 100 µg/mL stood at 68%, the activity at 1000 µg/mL amounted to 25%, the activity at 5000 µg/mL was found to be 4% and the IC50 is around 400 µg/mL (≈ 565 µM).
